Molecules are shown by their SMILES. In brackets after ≈: the same amount, converted by molar mass. Like-named read-outs stand apart in the source and are kept apart here.

A word on the MIC: it is the lowest concentration found to suppress growth.

One data set has as its system S. aureus ATCC 29213. Briefly: Mutation frequency for resistance, strain ATCC 29213. In kind it is cell-based, Staphylococcus aureus. As to the method:
(§1) The mutation frequency for development of resistance to the rifamycin derivative (1) as compared to rifampin was determined with selected Staphylococcus aureus strains.
(§2) Four S. aureus strains were used: S. aureus 30857, a rifampin-resistant isolate: S. aureus 6097, a strain used in the mouse mastitis test and originally from a case of gangrenous bovine mastitis; S. aureus B83-1, derived from the Newbould 305 strain; and S. aureus ATCC 29213, the in vitro control stain recommended by NCCLS.
(§3) All S. aureus strains were maintained on 3 mm glass beads immersed in trypticase soy broth (BBL Microbiology Systems, Cockeysville, Md.) with 10% glycerol and held at −70° C. until revived. Prior to testing, the strains were subcultured on tryptose blood agar base (Difco, Detroit, Mich.) supplemented with 5% sheep blood for 24 hours at 35° C.
(§4) These compounds were dissolved in 95% ethanol, a solution which was then diluted to 10% ethanol with sterile distilled water. Further dilutions were conducted in water.
(§5) The mutation frequency for development of resistance to the compounds tested was determined by the following method. A single colony of each strain was removed from the surface of a blood agar plate with a cotton swab, suspended in 5 ml of Mueller-Hinton broth (BBL), and streaked on the entire surface of five Mueller-Hinton agar plates. The plates were incubated overnight under aerobic conditions at 35° C., growth was removed from the agar using a sterile cotton swab, and the bacteria were suspended in 10 ml physiological saline. This bacterial suspension was the inoculum for the mutation frequency determinations. Standard plate counts were performed on the inoculum by performing serial dilutions and plating a 0.1 ml aliquot on the surface of ten Mueller-Hinton agar plates at each concentration. The plates were incubated for 18-24 hours at 35° C. under aerobic conditions and colony counts performed. Mean bacterial counts were calculated for the inoculum with each strain.
(§6) A 0.1 ml aliquot of the inoculum was then used to inoculate the entire surface of ten plates each containing 1, 10, and 100 μg/ml of the test antimicrobial agents. The plates were incubated for 18-24 hours at 35° C. under aerobic conditions and colony counts performed. Mean bacterial counts were calculated for each antimicrobial concentration and the mutation frequency calculated by dividing the number of colonies which grew on the drug containing media by the inoculum size.

Data set [1] has as its system Staphylococcus aureus 6097. The data set is described as follows: Dose titration in the mouse mastitis model (S. aureus-induced murine mastitis). Type of data set: in vivo. Particulars: mice, read 6 days after infection; for ED (mg/kg/d) Mastitis: 50% of mice without mastitis; for ED (mg/kg/d) Culture: 50% of mice with no bacteria cultured from gland.
Data set [2] has as its system Staphylococcus aureus 9203. Briefly: S. aureus intracellular killing assay in bovine PMN. Type of data set: cell-based. Particulars: overnight incubation (18 to 21 hours). As for the experimental part:
The therapeutic effect of the rifamycin derivative (1) was determined by S. aureus intracellular killing assay in bovine polymorphonuclear neutrophil (PMN).
The procedure for PMN isolation was as described in Carlton et al. (Proc. Soc. Exp. Biol. Med. 142: 853-858 (1973)).
Bovine blood collected by venipuncture in 50-ml syringes containing 1.5% EDTA (pH 6.8) was centrifuged at 1,000×g for 25 min. The plasma-buffer layer and the top few millileters were discarded. The packed erythrocyte fraction was pooled in 0.8% NaCl-phosphate buffer (pH 6.8) and 10 ml was placed in 20 ml of sterile water for 40 seconds to lyse the erythrocytes. Immediately thereafter, 10 ml of a 2.7% NaCl-phosphate buffer solution was added to restore isotonicity. The leukocytes, consisting of ≦84% PMNs, were washed twice and suspended in HBSS. PMNs were adjusted to a final concentration of 10^7 cells per ml.
The intracellular killing assay was carried out as described in Sanchez et al. (Antimicrobial Agents and Chemotherapy 29(4): 634-638 (1986)).
Bovine blood PMNs and bacteria (1:1) were suspended in HBSS containing 10% heterologous bovine serum. The mixture was incubated for 90 minutes at 37° C. in Erlenmeyer flasks with rotational mixing at 110 rpm. Lysostaphin (5 μg/ml) was added to the mixture for the final 15 minutes of incubation. The infected PMNs were washed 3 times by low-speed centrifugation and suspended in HBSS. Cells were pipetted (1 ml) into each well of a six-well cluster dish (Bellco Glass, Inc., Vineland, N.J.) at 5×10^6 PMNs per well. PMNs were allowed to attach and form a monolayer for 10 minutes at 37° C. The supernatant fluid with unattached cells was discarded, and 2 ml of fresh HBSS was added to each well. The rifamycin derivatives to be tested were then added to the wells (one six-well plate per drug). These derivatives were dissolved in dimethylsulfoxide, and then diluted in HBSS to final solvent concentrations of 0.01% (vol/vol) or less.
After overnight incubation (18 to 21 hours) at 37° C. with 1% CO2, lysostaphin (5 μg/ml) was added to each well for 15 min (at 37° C.) to kill extracellular bacteria. The monolayers were washed with HBSS, and the cells were lysed by addition of 1 ml of water to each well. The number of viable bacteria was then estimated by plate counts on brain heart infusion agar. […] The results are shown in Table 2, wherein R is the alkyl group in the rifamycin derivative (1).

The test system of data set [3] is Staphylococcus aureus 9203. Briefly: MIC against the strain of the intracellular killing assay. Type of data set: cell-based.
For data set [4], the system named is S. aureus 6097. Briefly: MIC, microbroth dilution, strain 6097. Type of data set: cell-based, Staphylococcus aureus. As to the method: as §2, §3, §4
MIC (Minimum Inhibitory Concentration) determinations were performed using the microbroth dilution method. (National Committee for Clinical Laboratory Standards, 1990 Approved Standard […]. Methods for dilution antimicrobial susceptibility tests for bacteria that grow aerobically, 3rd edition. National Committee for Clinical Laboratory Standards, Villanova, Pa.) The results are shown in Table 3, wherein R is the alkyl group R in the rifamycin derivative (1).

For data set [5], the system named is S. aureus 6097. Briefly: Mutation frequency for resistance, strain 6097. In kind it is cell-based, Staphylococcus aureus. As for the experimental part:
as §1, §2, §3, §4, §5, §6

The next data set is described as follows: Oral toxicity in mice. Particulars: orally administered to mice, 1,000 mg/kg. Type of data set: in vivo.
Setting [6] is: route IMM (intramammary), 1 hour after infection.

With `COC1/C=C/OC2(C)Oc3c(C)c(O)c4c(=O)c(c5oc6cc(N7CCN(C)CC7)cc(O)c6nc-5c4c3C2=O)NC(=O)/C(C)=C\C=C\C(C)C(O)C(C)C(O)C(C)C(OC(C)=O)C1C` (stereo not shown) [R = methyl], the Mutation frequency is given as 2.1 × 10^−9 in the data set with S. aureus ATCC 29213 (1 μg/ml); <1.1 × 10^−9 in the data set with S. aureus ATCC 29213 (10 μg/ml); <1.1 × 10^−9 in the data set on S. aureus ATCC 29213 (100 μg/ml); 4.0 × 10^−8 with S. aureus 6097 [5] (1 μg/ml); <1.8 × 10^−10 with S. aureus 6097 [5] (10 μg/ml); <1.8 × 10^−10 in the data set on S. aureus 6097 [5] (100 μg/ml). Further, the entries for the “ED (mg/kg/d) Mastitis” value in data set [1] (setting [6]) and in data set [1] (route SC (subcutaneous)) were 0.3 mg/kg/day and 0.2 mg/kg/day, respectively. The “ED (mg/kg/d) Culture” value in data set [1] (route IMM (intramammary)) worked out at 0.3 mg/kg/day; in data set [1] (route SC (subcutaneous)) it was 0.5 mg/kg/day. In addition, the “% reduction” value in data set [2] (1X MIC) came out at 92.0%; in data set [2] (100X MIC) it was 100%. Further, the “CFU/ml ISD (×10^3)” value in data set [2] (1X MIC) is reported as 0.3 ± 0.1 CFU/ml (×10^3); in data set [2] (100X MIC), 0.0 CFU/ml (×10^3). Further, the MIC entry is “≦0.03 μg/ml” in data set [3] and 0.061 ng/mL (≈ 0.0679 nM) in the data set with S. aureus 6097 [4]. Further, the toxicity result in the data set “Oral toxicity in mice” is given as “did not show any toxicity”.

Turning to `CO[C@H]1/C=C/O[C@@]2(C)Oc3c(C)c(O)c4c(O)c(c(/C=N/N5CCN(C)CC5)c(O)c4c3C2=O)NC(=O)/C(C)=C\C=C\[C@H](C)[C@H](O)[C@@H](C)[C@@H](O)[C@@H](C)[C@H](OC(C)=O)[C@@H]1C` [Rifampin, reference compound], the Mutation frequency in the data set on S. aureus ATCC 29213 (1 μg/ml) is reported as 2.6 × 10^−8; in the data set with S. aureus ATCC 29213 (10 μg/ml), 2.5 × 10^−8; with S. aureus ATCC 29213 (100 μg/ml) it was 1.9 × 10^−8; in the data set on S. aureus 6097 [5] (1 μg/ml) it was 1.2 × 10^−8; in the data set with S. aureus 6097 [5] (10 μg/ml), 2.0 × 10^−8; in the data set with S. aureus 6097 [5] (100 μg/ml), 4.9 × 10^−9. Moreover, the “ED (mg/kg/d) Mastitis” value in data set [1] (setting [6]) was 0.4 mg/kg/day. Besides, the “ED (mg/kg/d) Culture” value in data set [1] (route IMM (intramammary)) was greater than 2.0 mg/kg/day. For the same compound, the “% reduction” value in data set [2] (1X MIC) came out at 83.0%; in data set [2] (100X MIC) it was 85.0%. Further, the “CFU/ml ISD (×10^3)” value in data set [2] (1X MIC) is on record as 0.6 ± 0.3 CFU/ml (×10^3); in data set [2] (100X MIC), 0.5 ± 0.2 CFU/ml (×10^3). In addition, the MIC is no more than 30 ng/mL in data set [3] (read-out: MIC) and 1.9 ng/mL (≈ 2.31 nM) with S. aureus 6097 [4] (Staphylococcus aureus, read-out: MIC).

The values above are taken from patent publication US6486161B1, “Use of rifamycin derivative for treating mastitis in a domestic animal” (priority 2000, dated 2002).
